Laboratory results: BindingDB's records for patent US20240336593 (Lnnovstonetherapeutics, 2024)
pIC50: −log10 of the molar value.

Biological target: Protein arginine N-methyltransferase 5 (Homo sapiens, UniProt O14744)
Experiment: Test on the inhibitory activity of the compounds of the invention against PRMT5 enzyme by radioisotopic method
Procedure: Test method: A 1× enzyme reaction buffer (10 mM Tris 8.0 (Sigma, Cat. No. T2694-1L), 0.01% Tween-20 (Sigma, Cat. No. P2287-100 ML), 1 mM DTT (Sigma, Cat. No. D0632-10G)) was prepared. […] SAM (PerkinElmer, Cat. No. NET155V001MC) were added to the 1×enzyme reaction buffer, to prepare a 25/15× mixed solution (PRMT5 final concentration: 5 nM, [3H] SAM final concentration: 0.3 μM). […] 25 µL of the reaction mixture was transferred into a FlashPlate (Streptavidin FlashPlate HTS PLUS, High Capacity, 384-well, Perkin Elmer, Cat. No. SMP410A001PK), and incubated at room temperature for 1 h. After washed three times with distilled water containing 0.1% Tween-20, the microplate was read on a MicroBeta reader for CPM data (Counts Per Minute). […] Then the inhibition rate Inh % (Y) corresponding to each concentration (X) was input in EXCEL, and the IC50 value (the half maximal inhibitory concentration) of each compound was calculated with the XLfit plug-in according to the built-in four-parameter fitting equation Y=Bottom+(Top-Bottom)/(1+(IC50/X)[…]).

Chain of Protein arginine N-methyltransferase 5 (O14744 whole entry): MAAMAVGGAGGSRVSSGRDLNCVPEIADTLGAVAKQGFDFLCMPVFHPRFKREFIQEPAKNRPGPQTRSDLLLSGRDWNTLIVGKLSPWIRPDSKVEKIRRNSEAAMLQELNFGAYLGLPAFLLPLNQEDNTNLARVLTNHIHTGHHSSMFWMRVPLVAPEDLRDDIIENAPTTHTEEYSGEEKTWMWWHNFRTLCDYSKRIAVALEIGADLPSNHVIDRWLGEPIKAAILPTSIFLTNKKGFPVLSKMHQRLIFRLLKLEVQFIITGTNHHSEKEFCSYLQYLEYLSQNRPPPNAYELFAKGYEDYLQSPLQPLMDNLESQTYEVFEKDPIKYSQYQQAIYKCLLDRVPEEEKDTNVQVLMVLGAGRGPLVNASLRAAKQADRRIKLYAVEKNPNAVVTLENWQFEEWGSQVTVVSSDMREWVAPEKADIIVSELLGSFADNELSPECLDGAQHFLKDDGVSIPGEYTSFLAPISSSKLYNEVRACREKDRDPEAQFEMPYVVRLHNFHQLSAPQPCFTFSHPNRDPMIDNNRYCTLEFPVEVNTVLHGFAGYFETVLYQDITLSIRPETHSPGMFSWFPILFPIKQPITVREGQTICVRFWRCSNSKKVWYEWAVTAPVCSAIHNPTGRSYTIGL

pIC50 | Compound
> 7.00 | CS(=O)(=O)c1ccc(Nc2cc(C(=O)N3CC[C@H](N4CCc5ccccc5C4)[C@@H](O)C3)ncn2)cc1 (relative stereo) [US20240336593, Example 132]
> 7.00 | N#CCC(=O)N1CCC(Nc2cc(C(=O)N3CC[C@H](N4CCc5ccccc5C4)[C@@H](O)C3)ncn2)CC1 [US20240336593, Example 143]
> 7.00 | Cc1cccc(Nc2cc(N3CC[C@H](N4CCc5ccccc5C4)[C@@H](O)C3)ncn2)c1 (relative stereo) [US20240336593, Example 34]
> 7.00 | COCCCCNc1cc(C(=O)N2CC[C@@H](N3CCc4ccccc4C3)[C@H](O)C2)nc(-c2ccccc2)n1 [US20240336593, Example 148]
> 7.00 | CC(=O)N1CCC(Nc2cc(C(=O)N3CC[C@@H](N4CCc5ccccc5C4)[C@H](O)C3)nc(-c3cn[nH]c3)n2)CC1 [US20240336593, Example 145]
> 7.00 | CN1CCC(Nc2cc(C(=O)N3CC[C@H](O)[C@@H](N4CCc5ccccc5C4)CC3)ncn2)CC1 (relative stereo) [US20240336593, Example 129]
> 7.00 | CS(=O)(=O)N1CCC(Nc2cc(C(=O)N3CC[C@H](O)[C@@H](N4CCc5ccccc5C4)CC3)ncn2)CC1 (relative stereo) [US20240336593, Example 130]
> 7.00 | O=C(c1cc(NC2CCN(CC(F)(F)F)CC2)ncn1)N1CC[C@H](N2CCc3ccccc3C2)[C@@H](O)C1 (relative stereo) [US20240336593, Example 121]
> 7.00 | CN1CCC(Nc2cc(C(=O)N3CC[C@H](N4CCc5ccccc5C4)[C@@H](O)C3)ncn2)CC1 (relative stereo) [US20240336593, Example 100]
> 7.00 | CO[C@H]1C[C@@H](Nc2cc(C(=O)N3CC[C@@H](N4CCc5ccccc5C4)[C@H](O)C3)nc(-c3ccccc3)n2)C1 [US20240336593, Example 146]
> 7.00 | O=C(c1cc(NCC(F)F)nc(-n2ccnc2)n1)N1CCC(N2CCc3ccccc3C2)[C@H](O)C1 (some centres not stated) [US20240336593, Example 147]
> 7.00 | O=C(c1cc(NC2CCS(=O)(=O)CC2)ncn1)N1CC[C@H](N2CCc3ccccc3C2)[C@@H](O)C1 (relative stereo) [US20240336593, Example 135]
> 7.00 | CS(=O)(=O)c1cccc(Nc2cc(C(=O)N3CC[C@H](N4CCc5ccccc5C4)[C@@H](O)C3)ncn2)c1 (relative stereo) [US20240336593, Example 133]
> 7.00 | O=C(c1cc(NC2CCN(CCO)CC2)ncn1)N1CC[C@H](N2CCc3ccccc3C2)[C@@H](O)C1 [US20240336593, Example 122]
> 7.00 | COc1ccccc1Nc1cc(C(=O)N2CC[C@H](N3CCc4ccccc4C3)[C@@H](O)C2)ncn1 (relative stereo) [US20240336593, Example 105]
> 7.00 | O=C(c1cc(NC2CCOCC2)ncn1)N1CC[C@H](O)[C@@H](N2CCc3ccccc3C2)CC1 (relative stereo) [US20240336593, Example 128]
> 7.00 | O=C(c1cc(NC2CCNCC2)ncn1)N1CC[C@H](N2CCc3ccccc3C2)[C@@H](O)C1 [US20240336593, Example 112]
